Results taken from publication PMC12410356 (International Journal for Parasitology: Drugs and Drug …, 2025).
Like-named read-outs stand apart in the source and are kept apart here.

Columns and labels:
[1] = test system: E. multilocularis metacestode vesicles; test: Phosphoglucose isomerase (PGI) release assay (damage-marker release) on metacestode vesicles; assay type: cell-based, Echinococcus multilocularis; conditions: for PGI d5 (relative PGI release) / PGI d12 (relative PGI release): 10 μM; for PGI d5 (relative PGI release): 5 days; for PGI d12 (relative PGI release): 12 days
[2] = test system: E. multilocularis metacestode vesicles; test: Metacestode vesicle viability assay (ATP, CellTiter-Glo); assay type: cell-based, Echinococcus multilocularis; conditions: Echinococcus multilocularis, 288 h; for viability at 10 µM: 12 days, read-out: Viability d12 (relative viability)
Procedure: Viability was assessed after 12 days using the same metacestode vesicles as for the PGI release assay. Triton X-100 was added to each well to a final concentration of 0.1 %. Subsequently the metacestode vesicles were broken mechanically and 50 μL of the supernatant was mixed with 50 μL of CellTiter-Glo® buffer (Promega, Dübendorf, Switzerland). Measurements were performed on a HIDEX Sense microplate reader.

[3] = test system: E. multilocularis GL cells; test: Germinal layer cell viability assay (CellTiter-Glo); assay type: cell-based, Echinococcus multilocularis
Procedure: The isolation of GL cells was conducted according to ([Kaethner et al., 2023]). Briefly, conditioned DMEM (cDMEM) was prepared prior to isolation. For the preparation of cDMEM, 1 × 10^6 RH cells and 10 × 10^6 RH cells incubated in DMEM supplemented with 10 % FBS, penicillin (100 U/mL), streptomycin (100 μg/mL) and tetracycline (5 μg/mL) for six or four days, respectively, at 37 °C under a humid, 5 % CO2 atmosphere. The supernatant of each was mixed 1:1 and sterile filtrated, resulting in cDMEM. Metacestode vesicles of at least 6 months of age were washed with PBS, incubated in distilled H2O for 2.5 min and subsequently mechanically disrupted. The resulting pellet was resuspended in 7 vol of pre-warmed 0.05 % Trypsin/0.02 % EDTA and incubated at 37 °C for 30 min. GL cells were extracted from the laminated layer by vigorous shaking followed by filtration through a 30 μm mesh (Sefar AG, Heiden, Switzerland) and separated from calcareous corpuscles by short centrifugation at 50×g for 30 s at RT. The isolated cells were centrifuged for 10 min at 600×g and RT and the pellet was resuspended in cDMEM. The cell suspension was diluted 1:100 in PBS to measure the OD600. An OD600 value of 0.1 of this dilution was defined as one arbitrary unit (AU) per μL of the undiluted cell suspension corresponding to 0.97 ± 0.11 μg of total protein for the GL cells as measured via Pierce™ bicinchoninic acid (BCA) Protein Assay Kit according to the manufacturer's protocol (Fisher Scientific AG, Reinach, Switzerland). 1′000 AU per 5 mL of cDMEM were cultured at 37 °C overnight under a humid nitrogen atmosphere. The next day, 2′000 AU of GL cells were combined and further cultured for 3 h at 37 °C under a humid nitrogen atmosphere before they were used for further experiments.
To assess effects of compounds on the cell viability of isolated E. multilocularis GL cells, the protocol was applied as previously described ([Kaethner et al., 2023]). In short, 15 AU of GL cells were distributed into each well of a black 384-well plate. Compounds dissolved in DMSO (alexidine, carbendazim, ESI-09, MMV1581545 and oxfendazole) were added to final concentrations ranging from 80 to 0.31 μM (1:2 serial dilution) and the cells were cultured for 5 days at 37 °C under a humid, microaerobic atmosphere (85 % N2, 10 % CO2, 5 % O2). DMSO with the respective concentration was used as a solvent control. Viability was measured using the CellTiter-Glo® kit. Luminescence was measured using a HIDEX Sense microplate reader. Measurements were done in quadruplicates and represented as relative viability of the DMSO controls. IC50 values were calculated in R applying the five parameter logistic model for three independent experiments ([Ritler et al., 2020]).

[4] = test system: E. multilocularis metacestode vesicles; test: Transmission electron microscopy of treated metacestode vesicles; assay type: cell-based, Echinococcus multilocularis; conditions: 1 μM, 24 h
Procedure: To investigate induction of ultrastructural changes in E. multilocularis metacestode vesicles treated with ESI-09, transmission electron microscopy (TEM) was performed. Metacestode vesicles were treated with either 1 μM ESI-09 or the solvent control DMSO with subsequent incubation for 24 h at 37 °C under a humid, 5 % CO2 atmosphere. Processing and imaging was done as previously described ([Kaethner et al., 2023]).

mice = test system: mice; parameters: method as in Almahariq et al., 2013; Maeda et al., 2020; conditions: ref Almahariq et al., 2013, Maeda et al., 2020, cited from earlier work
[5] = confirmation screen, triplicates, mean
[6] = overview screen, singlets, relative to 0.1 % Triton X-100, DMSO subtracted

Compound: CC(C)(C)c1cc(C(=O)/C(C#N)=N/Nc2cccc(Cl)c2)no1 [ESI-09]
- IC50 ([1]; Echinococcus multilocularis, 288 h, 12 days incubation, mean ± SD of three independent experiments): 6060 ± 3180 nM
- PGI d5 (relative PGI release) [1, 5]: 6.08%
- PGI d12 (relative PGI release) [1, 5]: 38.44%
- detachment of the GL from the laminated layer, visible from concentration ([1]; microscopy pictures, 12 days incubation): ≥ 13.3 µM
- PGI d5 (relative PGI release) [1, 6]: 33.0513%
- PGI d12 (relative PGI release) [1, 6]: 64.0941%
- viability at 10 µM [2, 5]: 10.7%
- viability at 10 µM ([2]; overview screen, singlets, relative to DMSO control): 7.77%
- IC50 ([2]; 12 days incubation, mean ± SD of three independent experiments): 2090 ± 560 nM
- effect on GL cell viability (in words) ([3]; 80 to 0.31 μM, 5 days): highly effective
- IC50 ([3]; Echinococcus multilocularis, 120 h, 5 days incubation, microaerobic, mean ± SD of three independent experiments): 2450 ± 860 nM
- ultrastructural changes in metacestode vesicles (in words) [4]: induced distinct ultrastructural changes
- ultrastructural changes in mitochondria (in words) [4]: no ultrastructural changes in mitochondria were seen
- tolerability in mice (in words) (mice; daily 10 mg/kg intraperitoneal for 21 days): well-tolerated
- tolerability in mice (in words) (mice; daily 50 mg/kg oral gavage up to 26 days): well-tolerated
